Reference: ChEMBL document CHEMBL5442175, “EUbOPEN Chemogenomics Library - PDSP Secondary Binding” (2024)

Legend:
[1] = target: T1, Muscarinic acetylcholine receptor M5 (Homo sapiens, UniProt P08912); experiment: (§1) PDSP Secondary Binding target: CHRM5 - Compounds are tested at 10 uM concentration, plate are incubated at room temperature in the dark for 90 minutes. Reaction are stopped by vacuum filtration onto 0.3% polyethyleneimine soaked filter mats using Filtermate harvester. Scintillation cocktail is then melted onto microwave-dried filters on a hot plate and the radio activity is counted in Microbia counter.
T1 sequence (P08912 whole entry): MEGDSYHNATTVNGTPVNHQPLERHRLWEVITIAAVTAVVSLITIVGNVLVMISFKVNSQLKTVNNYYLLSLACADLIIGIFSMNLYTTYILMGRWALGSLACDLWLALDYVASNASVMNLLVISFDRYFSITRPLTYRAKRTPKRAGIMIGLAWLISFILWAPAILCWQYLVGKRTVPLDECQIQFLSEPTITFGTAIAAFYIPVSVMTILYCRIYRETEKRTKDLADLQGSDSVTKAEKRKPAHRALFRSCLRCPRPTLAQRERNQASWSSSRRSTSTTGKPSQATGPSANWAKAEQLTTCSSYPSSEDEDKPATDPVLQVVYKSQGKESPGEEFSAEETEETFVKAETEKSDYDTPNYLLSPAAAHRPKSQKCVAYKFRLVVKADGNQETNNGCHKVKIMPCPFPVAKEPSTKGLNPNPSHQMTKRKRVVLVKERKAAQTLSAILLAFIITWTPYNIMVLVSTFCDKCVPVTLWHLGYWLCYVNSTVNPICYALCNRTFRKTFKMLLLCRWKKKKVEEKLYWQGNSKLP

[2] = target: Delta-type opioid receptor (Homo sapiens, UniProt P41143); experiment: as §1, with “OPRD1” for “CHRM5”
[3] = target: Mu-type opioid receptor (Homo sapiens, UniProt P35372); experiment: as §1, with “OPRM1” for “CHRM5”
[4] = target: Histamine H4 receptor (Homo sapiens, UniProt Q9H3N8); experiment: as §1, with “HRH4” for “CHRM5”
[5] = target: T2, Alpha-2A adrenergic receptor (Homo sapiens, UniProt P08913); experiment: as §1, with “ADRA2A” for “CHRM5”
T2 sequence (P08913 whole entry): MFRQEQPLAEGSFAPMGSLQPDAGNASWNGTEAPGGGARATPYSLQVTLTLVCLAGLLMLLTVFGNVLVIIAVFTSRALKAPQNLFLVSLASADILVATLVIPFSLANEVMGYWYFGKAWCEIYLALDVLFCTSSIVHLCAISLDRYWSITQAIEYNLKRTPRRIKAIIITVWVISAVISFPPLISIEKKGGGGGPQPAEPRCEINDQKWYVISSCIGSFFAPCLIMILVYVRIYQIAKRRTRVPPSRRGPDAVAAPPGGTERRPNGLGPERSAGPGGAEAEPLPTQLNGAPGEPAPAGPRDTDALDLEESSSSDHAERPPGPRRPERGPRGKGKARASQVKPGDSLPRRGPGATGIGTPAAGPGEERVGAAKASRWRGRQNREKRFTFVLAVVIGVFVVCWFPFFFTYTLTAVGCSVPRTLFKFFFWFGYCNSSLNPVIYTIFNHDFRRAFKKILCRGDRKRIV

[6] = target: Histamine H3 receptor (Homo sapiens, UniProt Q9Y5N1); experiment: as §1, with “HRH3” for “CHRM5”
[7] = target: Sigma non-opioid intracellular receptor 1 (Homo sapiens, UniProt Q99720); experiment: as §1, with “SIGMAR1” for “CHRM5”
[8] = target: T3, D(4) dopamine receptor (Homo sapiens, UniProt P21917); experiment: as §1, with “DRD4” for “CHRM5”
T3 sequence (P21917 whole entry): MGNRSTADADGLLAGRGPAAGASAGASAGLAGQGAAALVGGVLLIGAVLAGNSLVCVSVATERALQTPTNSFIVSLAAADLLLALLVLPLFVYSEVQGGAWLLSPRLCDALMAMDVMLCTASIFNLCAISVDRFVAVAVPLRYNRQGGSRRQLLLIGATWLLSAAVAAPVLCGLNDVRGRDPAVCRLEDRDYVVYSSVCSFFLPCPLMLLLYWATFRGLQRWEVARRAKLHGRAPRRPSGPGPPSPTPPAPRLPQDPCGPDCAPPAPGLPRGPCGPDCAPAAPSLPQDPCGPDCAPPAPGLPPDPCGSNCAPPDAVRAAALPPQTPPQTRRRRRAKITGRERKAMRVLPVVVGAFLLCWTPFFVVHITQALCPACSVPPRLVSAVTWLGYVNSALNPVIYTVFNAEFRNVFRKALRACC

[9] = target: T4, Muscarinic acetylcholine receptor M2 (Homo sapiens, UniProt P08172); experiment: as §1, with “CHRM2” for “CHRM5”
T4 sequence (P08172 whole entry): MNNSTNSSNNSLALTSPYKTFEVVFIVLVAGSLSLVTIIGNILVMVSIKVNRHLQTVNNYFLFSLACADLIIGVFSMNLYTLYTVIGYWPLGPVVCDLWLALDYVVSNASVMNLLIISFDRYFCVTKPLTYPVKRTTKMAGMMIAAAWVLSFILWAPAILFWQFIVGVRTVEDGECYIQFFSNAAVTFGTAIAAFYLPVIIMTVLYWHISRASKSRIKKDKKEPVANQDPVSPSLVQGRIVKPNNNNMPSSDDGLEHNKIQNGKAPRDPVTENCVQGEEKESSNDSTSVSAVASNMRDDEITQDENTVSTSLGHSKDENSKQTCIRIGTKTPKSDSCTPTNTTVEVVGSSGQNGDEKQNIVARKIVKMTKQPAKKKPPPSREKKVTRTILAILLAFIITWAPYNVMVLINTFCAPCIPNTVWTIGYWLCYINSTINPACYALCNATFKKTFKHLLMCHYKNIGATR

[10] = target: D(3) dopamine receptor (Homo sapiens, UniProt P35462); experiment: as §1, with “DRD3” for “CHRM5”
[11] = target: T5, Muscarinic acetylcholine receptor M1 (Homo sapiens, UniProt P11229); experiment: as §1, with “CHRM1” for “CHRM5”
T5 sequence (P11229 whole entry): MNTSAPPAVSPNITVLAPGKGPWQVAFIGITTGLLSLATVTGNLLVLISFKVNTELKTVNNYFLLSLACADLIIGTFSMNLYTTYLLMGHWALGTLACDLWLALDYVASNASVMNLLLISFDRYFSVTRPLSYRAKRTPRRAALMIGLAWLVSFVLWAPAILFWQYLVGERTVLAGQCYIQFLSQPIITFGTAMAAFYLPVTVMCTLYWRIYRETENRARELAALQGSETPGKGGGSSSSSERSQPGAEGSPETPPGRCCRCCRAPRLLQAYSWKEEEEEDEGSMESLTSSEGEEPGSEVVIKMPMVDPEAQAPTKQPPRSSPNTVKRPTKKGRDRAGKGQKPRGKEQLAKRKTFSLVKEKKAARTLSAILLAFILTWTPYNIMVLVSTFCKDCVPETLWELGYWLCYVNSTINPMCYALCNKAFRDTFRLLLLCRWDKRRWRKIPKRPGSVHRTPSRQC

[12] = target: Beta-2 adrenergic receptor (Homo sapiens, UniProt P07550); experiment: as §1, with “ADRB2” for “CHRM5”
[13] = target: T6, Muscarinic acetylcholine receptor M4 (Homo sapiens, UniProt P08173); experiment: as §1, with “CHRM4” for “CHRM5”
T6 sequence (P08173 whole entry): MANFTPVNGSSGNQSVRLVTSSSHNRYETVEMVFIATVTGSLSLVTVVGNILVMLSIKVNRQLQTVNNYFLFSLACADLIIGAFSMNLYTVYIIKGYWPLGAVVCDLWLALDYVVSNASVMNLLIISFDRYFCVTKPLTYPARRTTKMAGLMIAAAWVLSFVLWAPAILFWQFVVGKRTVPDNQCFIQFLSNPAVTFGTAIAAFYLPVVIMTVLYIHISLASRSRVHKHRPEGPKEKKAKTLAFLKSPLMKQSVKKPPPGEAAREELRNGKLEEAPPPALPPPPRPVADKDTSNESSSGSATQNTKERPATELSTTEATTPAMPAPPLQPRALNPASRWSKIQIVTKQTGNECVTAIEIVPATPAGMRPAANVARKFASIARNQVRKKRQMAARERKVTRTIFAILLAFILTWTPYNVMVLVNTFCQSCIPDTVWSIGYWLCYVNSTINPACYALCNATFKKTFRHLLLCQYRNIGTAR

[14] = target: Histamine H2 receptor (Homo sapiens, UniProt P25021); experiment: as §1, with “HRH2” for “CHRM5”
[15] = target: Muscarinic acetylcholine receptor M3 (Homo sapiens, UniProt P20309); experiment: as §1, with “CHRM3” for “CHRM5”
[16] = target: Kappa-type opioid receptor (Homo sapiens, UniProt P41145); experiment: as §1, with “OPRK1” for “CHRM5”
[17] = target: Histamine H1 receptor (Homo sapiens, UniProt P35367); experiment: as §1, with “HRH1” for “CHRM5”
[18] = target: 5-hydroxytryptamine receptor 2A (Homo sapiens, UniProt P28223); experiment: as §1, with “HTR2A” for “CHRM5”
[19] = target: Sigma intracellular receptor 2 (Homo sapiens, UniProt Q5BJF2); experiment: as §1, with “TMEM97” for “CHRM5”
[20] = target: Sodium-dependent noradrenaline transporter (Homo sapiens, UniProt P23975); experiment: as §1, with “SLC6A2” for “CHRM5”
[21] = target: Sodium-dependent dopamine transporter (Homo sapiens, UniProt Q01959); experiment: as §1, with “SLC6A3” for “CHRM5”
Sodium-dependent dopamine transporter, sequence (Q01959 whole entry): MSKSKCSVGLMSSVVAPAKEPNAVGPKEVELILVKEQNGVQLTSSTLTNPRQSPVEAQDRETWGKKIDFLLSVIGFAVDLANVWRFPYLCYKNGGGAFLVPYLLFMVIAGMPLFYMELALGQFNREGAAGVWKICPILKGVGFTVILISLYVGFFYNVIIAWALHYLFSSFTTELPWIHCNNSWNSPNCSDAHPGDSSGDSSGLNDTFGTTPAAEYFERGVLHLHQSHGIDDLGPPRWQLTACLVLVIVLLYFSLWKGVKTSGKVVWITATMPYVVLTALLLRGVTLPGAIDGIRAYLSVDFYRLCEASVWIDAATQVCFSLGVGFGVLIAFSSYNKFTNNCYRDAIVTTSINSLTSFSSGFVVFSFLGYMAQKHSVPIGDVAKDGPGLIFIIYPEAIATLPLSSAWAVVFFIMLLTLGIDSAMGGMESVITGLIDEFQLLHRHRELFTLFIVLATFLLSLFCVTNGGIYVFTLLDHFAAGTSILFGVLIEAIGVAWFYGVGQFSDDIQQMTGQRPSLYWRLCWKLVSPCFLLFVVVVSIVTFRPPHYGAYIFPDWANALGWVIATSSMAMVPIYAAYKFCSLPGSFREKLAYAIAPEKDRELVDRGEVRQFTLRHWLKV

Delta-type opioid receptor, sequence (P41143 whole entry): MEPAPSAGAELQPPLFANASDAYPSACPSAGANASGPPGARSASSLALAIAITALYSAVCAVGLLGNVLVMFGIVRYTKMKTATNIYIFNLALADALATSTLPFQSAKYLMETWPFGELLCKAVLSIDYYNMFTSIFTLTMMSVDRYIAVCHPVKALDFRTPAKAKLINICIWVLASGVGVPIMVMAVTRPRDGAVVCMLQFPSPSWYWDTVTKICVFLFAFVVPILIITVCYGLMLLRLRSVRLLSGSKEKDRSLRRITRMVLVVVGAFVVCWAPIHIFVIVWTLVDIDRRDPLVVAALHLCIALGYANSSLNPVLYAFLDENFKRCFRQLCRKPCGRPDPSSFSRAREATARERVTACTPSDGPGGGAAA
Mu-type opioid receptor, sequence (P35372 whole entry): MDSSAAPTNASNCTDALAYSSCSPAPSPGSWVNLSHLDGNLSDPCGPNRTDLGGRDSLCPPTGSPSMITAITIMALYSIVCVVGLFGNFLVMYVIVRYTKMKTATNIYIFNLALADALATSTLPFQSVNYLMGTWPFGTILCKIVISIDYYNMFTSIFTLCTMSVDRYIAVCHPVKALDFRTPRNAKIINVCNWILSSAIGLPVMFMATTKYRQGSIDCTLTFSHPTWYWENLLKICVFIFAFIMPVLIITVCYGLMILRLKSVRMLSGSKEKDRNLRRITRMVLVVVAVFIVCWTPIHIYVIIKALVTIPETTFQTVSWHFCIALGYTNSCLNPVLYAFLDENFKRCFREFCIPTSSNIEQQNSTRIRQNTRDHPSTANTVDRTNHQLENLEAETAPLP
Histamine H4 receptor, sequence (Q9H3N8 whole entry): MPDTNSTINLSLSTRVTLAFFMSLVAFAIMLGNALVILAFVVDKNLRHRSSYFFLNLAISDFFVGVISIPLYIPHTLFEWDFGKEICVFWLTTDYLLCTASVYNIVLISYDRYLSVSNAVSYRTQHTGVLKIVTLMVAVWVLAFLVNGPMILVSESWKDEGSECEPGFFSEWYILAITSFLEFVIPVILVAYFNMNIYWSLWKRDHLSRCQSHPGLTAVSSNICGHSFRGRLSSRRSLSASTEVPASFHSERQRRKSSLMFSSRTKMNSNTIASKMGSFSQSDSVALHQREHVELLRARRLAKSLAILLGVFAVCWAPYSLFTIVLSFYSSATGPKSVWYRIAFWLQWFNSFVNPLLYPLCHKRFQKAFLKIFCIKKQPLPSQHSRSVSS
Sigma non-opioid intracellular receptor 1, sequence (Q99720 whole entry): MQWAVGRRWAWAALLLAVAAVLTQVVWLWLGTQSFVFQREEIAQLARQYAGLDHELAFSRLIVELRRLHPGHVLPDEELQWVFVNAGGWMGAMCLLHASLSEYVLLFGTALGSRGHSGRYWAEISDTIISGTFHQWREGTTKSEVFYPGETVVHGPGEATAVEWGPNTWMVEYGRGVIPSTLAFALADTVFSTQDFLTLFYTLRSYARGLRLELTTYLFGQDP
Histamine H1 receptor, sequence (P35367 whole entry): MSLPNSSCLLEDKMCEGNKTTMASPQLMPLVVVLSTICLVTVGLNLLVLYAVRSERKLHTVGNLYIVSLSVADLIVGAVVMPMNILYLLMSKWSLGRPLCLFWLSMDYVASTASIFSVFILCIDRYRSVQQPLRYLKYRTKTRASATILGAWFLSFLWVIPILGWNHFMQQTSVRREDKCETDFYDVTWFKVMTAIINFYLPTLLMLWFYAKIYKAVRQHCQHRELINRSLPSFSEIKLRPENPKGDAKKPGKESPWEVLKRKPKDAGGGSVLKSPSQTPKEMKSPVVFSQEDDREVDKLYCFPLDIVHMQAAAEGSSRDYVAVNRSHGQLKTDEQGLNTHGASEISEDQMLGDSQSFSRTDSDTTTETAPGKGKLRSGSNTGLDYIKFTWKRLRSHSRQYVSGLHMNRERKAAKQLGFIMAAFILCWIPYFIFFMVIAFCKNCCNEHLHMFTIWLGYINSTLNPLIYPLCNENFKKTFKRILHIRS
D(3) dopamine receptor, sequence (P35462 whole entry): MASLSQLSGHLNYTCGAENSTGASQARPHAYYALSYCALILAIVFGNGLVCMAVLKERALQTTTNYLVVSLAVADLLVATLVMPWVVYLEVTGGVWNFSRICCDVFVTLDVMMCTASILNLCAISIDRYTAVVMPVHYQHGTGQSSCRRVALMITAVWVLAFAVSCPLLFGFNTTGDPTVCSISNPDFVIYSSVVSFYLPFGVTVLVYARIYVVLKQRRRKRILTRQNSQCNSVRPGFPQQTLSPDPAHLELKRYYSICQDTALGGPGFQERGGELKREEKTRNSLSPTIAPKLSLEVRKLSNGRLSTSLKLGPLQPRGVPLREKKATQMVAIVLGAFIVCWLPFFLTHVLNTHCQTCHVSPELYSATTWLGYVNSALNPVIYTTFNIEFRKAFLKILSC
Sigma intracellular receptor 2, sequence (Q5BJF2 whole entry): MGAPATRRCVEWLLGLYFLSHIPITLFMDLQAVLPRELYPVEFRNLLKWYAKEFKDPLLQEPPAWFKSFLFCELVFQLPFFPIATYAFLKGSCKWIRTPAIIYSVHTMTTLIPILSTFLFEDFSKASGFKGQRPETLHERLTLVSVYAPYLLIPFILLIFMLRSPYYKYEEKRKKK
Kappa-type opioid receptor, sequence (P41145 whole entry): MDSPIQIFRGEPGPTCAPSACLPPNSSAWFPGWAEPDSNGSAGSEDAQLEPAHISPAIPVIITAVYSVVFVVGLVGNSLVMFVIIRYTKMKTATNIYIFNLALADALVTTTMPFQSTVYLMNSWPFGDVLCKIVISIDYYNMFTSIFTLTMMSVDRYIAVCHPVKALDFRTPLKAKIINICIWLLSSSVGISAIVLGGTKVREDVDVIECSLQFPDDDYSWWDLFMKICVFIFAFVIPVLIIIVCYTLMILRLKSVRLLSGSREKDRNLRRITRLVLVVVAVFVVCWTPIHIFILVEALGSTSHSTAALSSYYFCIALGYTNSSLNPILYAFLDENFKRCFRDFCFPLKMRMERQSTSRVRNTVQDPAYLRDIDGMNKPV
Histamine H2 receptor, sequence (P25021 whole entry): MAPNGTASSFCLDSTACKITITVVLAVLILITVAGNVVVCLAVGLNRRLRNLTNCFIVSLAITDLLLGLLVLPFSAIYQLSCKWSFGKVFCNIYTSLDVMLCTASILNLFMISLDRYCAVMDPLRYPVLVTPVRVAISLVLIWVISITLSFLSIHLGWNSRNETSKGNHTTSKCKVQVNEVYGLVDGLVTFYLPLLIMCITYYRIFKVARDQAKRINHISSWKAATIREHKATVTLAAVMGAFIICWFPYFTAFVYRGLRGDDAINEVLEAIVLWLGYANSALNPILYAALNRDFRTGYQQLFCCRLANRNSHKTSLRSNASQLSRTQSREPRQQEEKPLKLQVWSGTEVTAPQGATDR
Beta-2 adrenergic receptor, sequence (P07550 whole entry): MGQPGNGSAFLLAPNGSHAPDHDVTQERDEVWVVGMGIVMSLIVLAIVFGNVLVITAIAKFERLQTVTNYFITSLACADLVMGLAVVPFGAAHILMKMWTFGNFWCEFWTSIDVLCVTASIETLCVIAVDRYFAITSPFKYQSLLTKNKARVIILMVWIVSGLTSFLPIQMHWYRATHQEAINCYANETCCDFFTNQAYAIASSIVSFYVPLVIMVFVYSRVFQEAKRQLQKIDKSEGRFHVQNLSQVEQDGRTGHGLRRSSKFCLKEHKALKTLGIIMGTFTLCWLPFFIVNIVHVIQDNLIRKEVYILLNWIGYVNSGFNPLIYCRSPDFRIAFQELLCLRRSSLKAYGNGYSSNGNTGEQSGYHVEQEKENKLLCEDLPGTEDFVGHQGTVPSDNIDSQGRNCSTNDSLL
5-hydroxytryptamine receptor 2A, sequence (P28223 whole entry): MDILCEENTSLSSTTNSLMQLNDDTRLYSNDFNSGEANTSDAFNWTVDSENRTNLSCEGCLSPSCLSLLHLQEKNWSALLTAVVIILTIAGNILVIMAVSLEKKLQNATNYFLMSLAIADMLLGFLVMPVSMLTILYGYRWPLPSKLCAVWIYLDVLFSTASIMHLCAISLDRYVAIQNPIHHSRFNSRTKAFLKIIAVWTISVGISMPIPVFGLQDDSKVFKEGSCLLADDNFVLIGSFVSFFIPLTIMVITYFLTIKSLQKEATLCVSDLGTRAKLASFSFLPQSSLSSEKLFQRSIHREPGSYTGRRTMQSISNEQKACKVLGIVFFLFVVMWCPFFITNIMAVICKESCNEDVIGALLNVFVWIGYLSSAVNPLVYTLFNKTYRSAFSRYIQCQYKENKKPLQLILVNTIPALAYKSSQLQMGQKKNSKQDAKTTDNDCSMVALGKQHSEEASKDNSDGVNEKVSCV

`CN(C(=O)Cc1ccc(Cl)c(Cl)c1)C(CN1CCCC1)c1cccc(OCC(=O)O)c1` (stereo not drawn) gave a Ki [1] of 5910 nM, a Ki [2] of 411 nM and a Ki [3] of 323 nM.
For `C[C@@H](N)Cc1c[nH]cn1`, the Ki [4] was 169 nM.
`N=C(N)SCCc1cnc[nH]1` was tested, and the Ki [5] was 4040 nM, the Ki [4] was 4.86 nM and the Ki [6] was 0.632 nM.
In the case of `Cc1cn2cc(CC(=O)N3CCC4(CC3)CN(Cc3ccc(-n5nccn5)cc3Cl)C4)nc2s1`, the Ki [7] is reported as 520 nM, the Ki [8] is reported as 1360 nM and the Ki [1] is reported as 662 nM. It also gave a Ki [9] of 243 nM, a Ki [10] of 480 nM and a Ki [11] of 846 nM. The Ki [12] was > 10000 nM, the Ki [13] was 181 nM and the Ki [14] was 3300 nM. For the same compound, the Ki [15] was 1530 nM.
With `C=CCN1C[C@H](C)N([C@H](c2ccc(C(=O)N(CC)CC)cc2)c2cccc(O)c2)C[C@H]1C` the Ki [7] was 108 nM, the Ki [16] was 23.3 nM and the Ki [2] was 3.85 nM. The Ki [3] was 14.7 nM.
`Cc1c(C2=CCN(C(=O)N(C)C(C)C)CC2)nnn1-c1cccnc1F` was tested, and the Ki [17] was 1450 nM, the Ki [18] was > 10000 nM and the Ki [2] was > 10000 nM. The Ki [19] was 8120 nM and the Ki [20] was > 10000 nM.
For `N#Cc1c(N)nc(SCc2csc(-c3ccc(Cl)cc3)n2)c(C#N)c1-c1ccc(OCCO)cc1` [CAPADENOSON], the Ki [2] was > 10000 nM and the Ki [21] was 3190 nM.
